Here are results for 22 compounds from ChEMBL document CHEMBL1156790, “Synthesis and structure-activity relationships of antitubercular 2-nitroimidazooxazines bearing heterocyclic side chains” (J Med Chem, 2010).

The structures appear in SMILES notation. Values after ≈ are worked out from the molar mass of the structure shown. Bounds are passed on as bounds.

Data set [1] relates to Mycobacterium tuberculosis. The experiment in a line: Antimycobacterial activity against Mycobacterium tuberculosis H37Rv after 16 to 24 hrs by microplate alamar blue assay. It counts as functional. A general note: Resazurin is reduced to fluorescent resorufin, in cell work by metabolically active cells.
In a further data set the test system is Vero. The data set is described as follows: Cytotoxicity against african green monkey Vero cells after 72 hrs by tetrazolium dye assay. It counts as cell-based. The note with it: Chlorocebus sabaeus.
The test system of data set [2] is Mycobacterium tuberculosis. The data set is described as follows: Antimycobacterial activity against Mycobacterium tuberculosis H37Rv expressing pFCA-luxAB after 10 days by luminescence-based low-oxygen recovery assay. It counts as functional. The following applies: 240 h.
A short description of data set [3]: Solubility in water at pH 7 at 20 degC. Type of data set: physicochemical.
In data set [4] the test system is Mycobacterium tuberculosis. The data set is described as follows: Antitubercular effect in Mycobacterium tuberculosis infected BALB/c mouse assessed as CFU reduction at 100 mg/kg, po administered 5 days a week for 3 weeks relative to PA-824. Type of data set: functional.
The subject of another data set is Liver microsomes. The data set is described as follows: (§1) Metabolic stability in human liver microsomes after 1 hr at 37 degC. It counts as ADME, Microsome. The note with it: microsomes, 1 h. On the technique in general: Liver microsomes are vesicles of endoplasmic reticulum, rich in cytochrome P450 enzymes.
Data set [5] is described as follows: Thermodynamic solubility in water at pH 7.4 at. It counts as physicochemical. The following applies: for solubility thermodynamic: water.
A short description of data set [6]: Metabolic stability in mouse liver microsomes after 1 hr at 37 degC. It counts as ADME, Microsome. The note with it: for remaining at 1 h: liver microsomes, read-out: Stability.
Data set [7] is described as follows: as §1. It counts as ADME, Microsome. The following applies: liver microsomes, read-out: Stability.

The term MIC denotes the lowest concentration that inhibits growth of the organism. One may read the IC50 as the concentration at which inhibition is half-maximal. For orientation: solubility means how much of the substance goes into solution per volume. On to `O=[N+]([O-])c1cn2c(n1)OC[C@@H](OCc1cc(-c3ccc(C(F)(F)F)cc3)no1)C2`, for which the minimal inhibitory concentration (MIC) in data set [1] was 0.17 µM (≈ 0.0698 µg/mL); in data set [2], 2.6 µM (≈ 1.07 µg/mL). This compound returned an IC50 with Vero above 128 µM. The concentration in solution in [3] (solubility) was 0.5 µg/mL (≈ 1.22 µM).
For `O=[N+]([O-])c1cn2c(n1)OC[C@@H](OCc1csc(-c3ccc(C(F)(F)F)cc3)n1)C2` the same measures were 1.4 µM (≈ 0.597 µg/mL), 3 µM (≈ 1.28 µg/mL), above 128 µM and 2.8 µg/mL (≈ 6.57 µM).
In the data set with Vero, `O=[N+]([O-])c1cn2c(n1)OC[C@@H](OCc1cccc(-c3ccc(C(F)(F)F)cc3)c1)C2` displayed a 50% inhibitory concentration (IC50) above 128 µM. The same compound registered a minimal inhibitory concentration (MIC) in [2] of 2.9 µM (≈ 1.22 µg/mL). Besides, the solubility in [3] is 2.8 µg/mL (≈ 6.68 µM).
The solubility (thermodynamic) is solubility found after equilibrating the solid with the medium. On to `O=[N+]([O-])c1cn2c(n1)OC[C@@H](OCc1ccn(-c3ccc(OC(F)(F)F)cc3)n1)C2`, for which the “fold change (FC)” value in [4] turned out to be 41. For the same compound, the MIC was found to be 0.05 µM (≈ 0.0213 µg/mL) in [1] and 0.61 µM (≈ 0.259 µg/mL) in data set [2]. The compound further showed an IC50 in the data set on Vero above 128 µM. For the same compound, the Stability was found to be 87% in the data set with Liver microsomes and 67% in data set [6] (microsomes, 1 h). The compound further showed a thermodynamic solubility in [5] of 23 µg/mL (≈ 54.1 µM).
In the case of `O=[N+]([O-])c1cn2c(n1)OC[C@@H](OCc1ccc(-c3ccc(C(F)(F)F)nc3)s1)C2`, the “fold change (FC)” value in data set [4] turned out to be 2.3. The MIC in [1] turned out to be 0.05 µM (≈ 0.0213 µg/mL); in data set [2], 4.4 µM (≈ 1.88 µg/mL). The compound further had a concentration for half-maximal inhibition (IC50) in the data set on Vero above 128 µM. Further, the remaining at 1 h in data set [7] came out at 85%; in data set [6] it was 77%. In addition, the solubility in data set [3] worked out at 8.9 µg/mL (≈ 20.9 µM).
As to `O=[N+]([O-])c1cn2c(n1)OC[C@@H](OCc1cn(-c3ccc(C(F)(F)F)cc3)nn1)C2`, the minimum inhibitory concentration (MIC) turned out to be 0.11 µM (≈ 0.0451 µg/mL) in data set [1] and 3.4 µM (≈ 1.4 µg/mL) in data set [2]. In the data set on Vero, this compound registered an IC50 above 128 µM. In data set [3], this compound yielded a solubility of 4.6 µg/mL (≈ 11.2 µM).
For `O=[N+]([O-])c1cn2c(n1)OC[C@@H](OCc1cnn(-c3ccc(C(F)(F)F)cc3)n1)C2` the same measures were 0.05 µM (≈ 0.0205 µg/mL), 2.1 µM (≈ 0.862 µg/mL), above 128 µM and 1 µg/mL (≈ 2.44 µM).
For `O=[N+]([O-])c1cn2c(n1)OC[C@@H](OCc1cnn(-c3ccc(C(F)(F)F)cc3)c1)C2` the same measures were 0.54 µM (≈ 0.221 µg/mL), 2.3 µM (≈ 0.941 µg/mL), above 128 µM and 4.9 µg/mL (≈ 12 µM).
On to `O=[N+]([O-])c1cn2c(n1)OC[C@@H](OCc1ccc(-c3ccc(C(F)(F)F)cc3)s1)C2`, for which the minimal inhibitory concentration (MIC) in [1] was 0.16 µM (≈ 0.0681 µg/mL); in data set [2], 1 µM (≈ 0.425 µg/mL). Further, the IC50 in the data set on Vero was above 128 µM. The same compound gave a solubility in [3] of 0.7 µg/mL (≈ 1.65 µM).
On to `N#Cc1ccc(-c2ccc(CO[C@@H]3COc4nc([N+](=O)[O-])cn4C3)s2)cc1`, for which the “fold change (FC)” value in data set [4] is on record as 0.02. In addition, the minimal inhibitory concentration (MIC) in data set [1] stood at 0.055 µM (≈ 0.021 µg/mL); in data set [2] it was 1.7 µM (≈ 0.65 µg/mL). The compound also registered an IC50 with Vero above 128 µM. In addition, the remaining at 1 h was determined as 85% in data set [7] and 54% in [6].
Turning to `O=[N+]([O-])c1cn2c(n1)OC[C@@H](OCc1ccc(OC(F)(F)F)cc1)C2` [PRETOMANID], the IC50 in the data set with Vero is above 128 µM. The MIC in [2] was 2.6 µM (≈ 0.934 µg/mL). This compound registered a solubility (thermodynamic) in [5] of 11 µg/mL (≈ 30.6 µM).
For the compound `Cn1c(CO[C@@H]2COc3nc([N+](=O)[O-])cn3C2)cnc1-c1ccc(C(F)(F)F)cc1`, the MIC came out at 0.65 µM (≈ 0.275 µg/mL) in [1] and 9.7 µM (≈ 4.11 µg/mL) in data set [2]. The compound also gave an IC50 in the data set on Vero above 128 µM. Further, in [3], the solubility came to 16 µg/mL (≈ 37.8 µM).
As to `O=[N+]([O-])c1cn2c(n1)OC[C@@H](OCc1ccc(-c3ccc(OC(F)(F)F)cc3)cc1)C2`, the IC50 with Vero was above 128 µM. The minimum inhibitory concentration (MIC) in data set [2] came out at 1.3 µM (≈ 0.566 µg/mL). This compound came in with a solubility (thermodynamic) in data set [5] below 0.5 µg/mL.
As for `O=[N+]([O-])c1cn2c(n1)OC[C@@H](OCc1cn(-c3ccc(OC(F)(F)F)cc3)nn1)C2`, the “fold change (FC)” value in [4] was 0.34. Besides, the MIC in data set [1] turned out to be 0.075 µM (≈ 0.032 µg/mL); in data set [2], 3.3 µM (≈ 1.41 µg/mL). Besides, the half-maximal inhibitory concentration (IC50) in the data set with Vero is above 128 µM. In addition, the remaining at 1 h in data set [7] is 99%; in data set [6], 74%.
`O=[N+]([O-])c1cn2c(n1)OC[C@@H](OCc1nnn(-c3ccc(C(F)(F)F)cc3)n1)C2`: the minimal inhibitory concentration (MIC) was 0.2 µM (≈ 0.0823 µg/mL) in data set [1] and 1.4 µM (≈ 0.576 µg/mL) in data set [2]. Also, in the data set with Vero, the 50% inhibitory concentration (IC50) is above 128 µM. In data set [3], this compound had a solubility of 5 µg/mL (≈ 12.2 µM).
For `O=[N+]([O-])c1cn2c(n1)OC[C@@H](OCc1ccn(-c3ccc(C(F)(F)F)cc3)n1)C2` the same measures were 0.045 µM (≈ 0.0184 µg/mL), 1 µM (≈ 0.409 µg/mL), above 128 µM and 5.4 µg/mL (≈ 13.2 µM).
For the compound `O=[N+]([O-])c1cn2c(n1)OC[C@@H](OCc1nnn(-c3ccc(OC(F)(F)F)cc3)n1)C2`, the MIC in [1] is 0.035 µM (≈ 0.015 µg/mL); in data set [2] it was 1.3 µM (≈ 0.555 µg/mL). The 50% inhibitory concentration (IC50) in the data set with Vero was above 128 µM. Besides, the remaining at 1 h in data set [6] was 81%.
In the data set with Vero, `O=[N+]([O-])c1cn2c(n1)OC[C@@H](OCc1cccc(-c3ccc(F)cc3)c1)C2` displayed a half-inhibitory concentration (IC50) above 128 µM. The compound further had a minimal inhibitory concentration (MIC) in data set [2] of 3.8 µM (≈ 1.4 µg/mL). The compound also had a solubility in [3] of 1.8 µg/mL (≈ 4.87 µM).
For `O=[N+]([O-])c1cn2c(n1)OC[C@@H](OCc1nnc(-c3ccc(F)cc3)o1)C2`, the minimum inhibitory concentration (MIC) in data set [1] came out at 2.4 µM (≈ 0.867 µg/mL); in data set [2], 17 µM (≈ 6.14 µg/mL). The concentration for half-maximal inhibition (IC50) in the data set on Vero was above 128 µM. Also, the solubility in data set [3] came to 108 µg/mL (≈ 299 µM).
Consider `O=[N+]([O-])c1cn2c(n1)OC[C@@H](OCc1cnn(-c3ccc(OC(F)(F)F)cc3)c1)C2`, for which the “fold change (FC)” value in data set [4] was found to be 1.5. The MIC in data set [1] came out at 0.15 µM (≈ 0.0638 µg/mL); in data set [2], 1.8 µM (≈ 0.766 µg/mL). This compound also gave a 50% inhibitory concentration (IC50) in the data set with Vero above 128 µM. The remaining at 1 h in data set [7] stood at 87%; in [6] it was 64%.
Turning to `Cn1nc(-c2ccc(OC(F)(F)F)cc2)cc1CO[C@@H]1COc2nc([N+](=O)[O-])cn2C1`, the “fold change (FC)” value in data set [4] amounted to 12. Moreover, the minimum inhibitory concentration (MIC) in data set [1] worked out at 0.06 µM (≈ 0.0264 µg/mL); in data set [2] it was 0.58 µM (≈ 0.255 µg/mL). Further, the concentration for half-maximal inhibition (IC50) in the data set with Vero is above 128 µM. For the same compound, the remaining at 1 h in data set [7] stood at 86%; in [6], 81%. In data set [5] (buffer), this compound showed a solubility of 0.88 µg/mL (≈ 2 µM).
In the case of `COc1ccc(-c2ccc(CO[C@@H]3COc4nc([N+](=O)[O-])cn4C3)s2)cn1`, the MIC in [1] was found to be 0.22 µM (≈ 0.0854 µg/mL); in data set [2] it was 4.5 µM (≈ 1.75 µg/mL). The compound also showed a 50% inhibitory concentration (IC50) in the data set on Vero above 128 µM. Besides, in data set [3], the solubility worked out at 2.2 µg/mL (≈ 5.66 µM).
